# Patent US20160317531A1, “RIBONUCLEOTIDE REDUCTASE INHIBITORS SENSITIZE TUMOR CELLS TO DNA DAMAGING AGENTS” (THE GENERAL HOSPITAL CORPORATION, priority 2013, published 2016)
# Legend:
# [1] = system: TMZ-resistant primary glioma rpGBMa cells; test: Gluc cell viability assay, recurrent GBM cells with RNR inhibitors and TMZ; assay type: cell-based; conditions: GBM cells from recurrent tumors, four days
# Protocol: FIG. 5A is a plot showing that glioma cells are sensitized to TMZ by ribonucleotide reductase inhibition. 3×10^3 TMZ-resistant primary glioma rpGBMa cells expressing Gluc were treated with […] of ribonucleotide reductase (RNR) inhibitor Fludarabine or Gemcitabine, in the presence or absence of 100 μM TMZ. After four days aliquots of conditioned medium were assayed for Gluc activity using 50 μl 2 μg/ml coelenterazine. Data presented as the mean Gluc RLU/mL +/−SD (n=8; **p<0.01 vs. no TMZ treatment by two-way ANOVA).
# Since HU is known to target ribonucleotide reductase subunit 2 (RNR), knockdown experiment was first performed in different cell lines using shRNA against RNR (shRNR) or scrambled control (ShScram) and different concentrations of TMZ. […] Other ribonucleotide reductase (RNR) inhibitors were further evaluated to determine if a similar effect as HU is obtained on GBM. GBM cells from recurrent tumors expressing Gluc were treated in a 96-well plate with either fludarabine or gemcitabine—classical RNR inhibitors—and cell viability was assessed by the Gluc assay. […] The RBP-Jk-Fluc reporter plasmid which carries RBP-Jk transcriptional response element driving the expression of Fluc34 was used. […] 293T cells were transfected with this plasmid, treated with 30 μM HU, and monitored Fluc activity 3 days later.
# [2] = system: U87R1, U87R2, SNZ308R1, SNZ308R2, HS683R1 and HS683R2 TMZ-resistant cells; test: Gluc cell viability assay, TMZ-resistant glioma subclones; assay type: cell-based
# Protocol: (§1) FIG. 1A is a set of graphs showing the effects of TMZ on tumor cells. U87, SNZ308, HS683 parental cells (P) and resistant clones (Res) were treated with different amounts of TMZ. After four days aliquots of conditioned medium were assayed for Gluc activity using 50 μl 2 μg/ml coelenterazine.
# FIG. 1B is a set of graphs showing the effects of TMZ+HU on tumor cells. U87 and resistant clones R1/R2 were treated with TMZ and/or 100 μM HU. Cell viability was assessed by the Gluc assay.
# The inventors previously generated two independent TMZ-resistant subclones from three different glioma cell lines (U87, SNZ308 and HS683) by long-term exposure (two times per week over seven weeks) to 100 μM TMZ, generating U87R1, U87R2, SNZ308R1, SNZ308R2, HS683R1 and HS683R2. These cells together with their parental counterparts were first engineered by lentivirus vector transduction to stably express the naturally secreted Gaussia luciferase (Gluc) as a reporter for cell viability. […] In this case, cell viability can be monitored over time by assaying aliquots of conditioned medium from these cells for Gluc activity. […] Using the U87R1 and U87R2 TMZ-resistant cells and the Gluc high-throughput screening assay (Badr, C. E., et al., Assay Drug Dev Technol, 2011 9, 281-289), a small library of 100 known anti-cancer agents was screened in the presence and absence of 100 μM TMZ. […]
# [3] = assay type: in vivo; conditions: mice treated four consecutive days; HU 30 mg/kg, TMZ 30 mg/kg
# Protocol: Primary GBM8 cells24 (from newly diagnosed tumor with methylated MGMT (Wakimoto, H., et al., Neuro Oncol 2012, 14, 132-144)) were grown in stem cell media as neural spheres. […] Upon intracranial injection, these cells formed tumors and infiltrated the brain of nude mice similar to human tumors (FIGS. 4A-4C). This model was used to test the efficacy of HU in combination with TMZ. Four weeks after implantation of 100,000 GBM8 cells, when tumors started to rapidly grow (as observed by Fluc imaging), mice were divided into two groups (n=20/group) which received DMSO vehicle or i.p. injection of 30 mg/kg TMZ four days/week over two weeks. […] Mice were then left off TMZ to allow for GBM tumors to recur potentially becoming resistant to TMZ, recapitulating the patient scenario. […] Next, the toxicity of this combined therapy was assessed by treating mice with either DMSO, TMZ, HU, or HU+TMZ for four consecutive days and analyzing the blood for white blood cells (WBC), hematocrit (HCT), mean corpuscular volume (MCV), red cell distribution width (RDW), hemoglobin (HGB), mean corpuscular hemoglobin (MCH), red blood cells (RBC), platelets (PLT), and mean platelet volume (MPV). […] Hematotoxicity on bone marrow was also evaluated by preparing bone marrow smears and counting viable cells from untreated and TMZ/HU-treated naïve mice as above.
# [4] = system: Notch signalling; test: RBP-Jk-Fluc reporter assay in 293T cells; assay type: cell-based
# Protocol: 293T cells were infected with lenti-RBP-Jk-Fluc vector and treated with 50 μM HU or γ-secretase inhibitor DAPT for […]. Cell lysates was imaged and analyzed for Fluc activity with the Xenogen IVIS 200 Imaging System. **p<0.01 vs. DMSO (n=8 for DMSO, n=5 for HU or DAPT treatment).
# Since HU is known to target ribonucleotide reductase subunit 2 (RNR), knockdown experiment was first performed in different cell lines using shRNA against RNR (shRNR) or scrambled control (ShScram) and different concentrations of TMZ. […] Other ribonucleotide reductase (RNR) inhibitors were further evaluated to determine if a similar effect as HU is obtained on GBM. GBM cells from recurrent tumors expressing Gluc were treated in a 96-well plate with either fludarabine or gemcitabine—classical RNR inhibitors—and cell viability was assessed by the Gluc assay. […] The RBP-Jk-Fluc reporter plasmid which carries RBP-Jk transcriptional response element driving the expression of Fluc34 was used. RBP-Jk is a DNA binding transcription factor and a direct downstream modulator of Notch signalling. Thus, this reporter can indirectly monitor Notch activity (Minoguchi, S., et al., Mol Cell Biol 1997, 17, 2679-2687). 293T cells were transfected with this plasmid, treated with 30 μM HU, and monitored Fluc activity 3 days later.
# [5] = system: melanoma cells; test: Sensitization of melanoma cells to TMZ; assay type: cell-based; conditions: FIG. 7
# [6] = for certain chemotherapeutics; cited from earlier work
# [7] = system: malignant gliomas; conditions: in combination with radiation or cytotoxic chemotherapy, not TMZ; cited from earlier work
# [8] = system: U87 tumors; test: Intracranial U87-Fluc tumor model, Fluc imaging and survival; conditions: 5 mg/kg TMZ i.p., 50 mg/kg HU i.p., start one week post-implantation
# Protocol: U87 cells (20,000 cells/mouse) expressing Fluc were implanted in the brain of nude mice. One week later, mice were divided in four groups (n=10-20/group) and treated with 1). DMSO vehicle as control, 2). 50 mg/kg HU, 3). 1 mg/kg TMZ or 4). 1 mg/kg TMZ+50 mg/kg HU. In FIG. 2A, tumor growth was monitored over time by Fluc imaging. X-axis, days after treatment starts. In FIG. 2B, survival was recorded to generate the Kaplan-Meier plot. X-axis, days after treatment starts.
# U87 cells (20,000 cells/mouse) expressing Fluc were implanted in the brain of nude mice. One week later, mice were divided in four groups (n=10-20/group) and treated with 1). DMSO vehicle as control, 2). 50 mg/kg HU, 3). 5 mg/kg TMZ or 4). 5 mg/kg TMZ+50 mg/kg HU. In FIG. 2C, tumor growth was monitored over time by Fluc imaging. X-axis, days after treatment starts. In FIG. 2D, survival was recorded to generate the Kaplan-Meier plot. X-axis, days after treatment starts.
# U87 or U87R1 cells were first transduced with a lentivirus vector to stably express firefly luciferase (Fluc), a reporter which can be used to track tumor growth in vivo (Wurdinger, T., et al., Nat Methods 2008, 5, 171-173). Fifty thousands of these cells were intracranially injected in the brain of nude mice as previously described. One week post-tumor implantation, mice were randomized into four different groups receiving: (1) DMSO vehicle control; (2) intraperitoneal (i.p) injection of 5 mg/kg TMZ; (3) 50 mg/kg HU i.p.; (4) combination of TMZ+HU. Tumor growth was monitored over time by in vivo Fluc bioluminescence imaging using a cooled CCD camera (Wurdinger, T., et al., Nat Methods 2008, 5, 171-173).
# GBM cells were first transduced with a lentivirus vector to stably express Fluc. Fifty thousands of these cells were intracranially injected in the brain of nude mice using the following coordinates from the bregma in mm: anterior-posterior +0.5 mm, medio-lateral +2.0 mm, dorso-ventral −2.5 mm. One week after implantation of 50,000 (low amount) or 200,000 (high amount) GBM cells, or 100 GBM spheres, mice were randomized into different treatment groups. Tumor growth was monitored over time by in vivo Fluc bioluminescence imaging after i.p. injection of 200 mg/kg D-luciferin substrate and acquiring signal using a cooled CCD camera (Wurdinger, T., et al., Nat Methods 2008, 5, 171-173).
# [9] = system: U87R1 tumors; test: Intracranial U87R1-Fluc (TMZ-resistant) tumor model, Fluc imaging and survival; conditions: 5 mg/kg TMZ i.p., 50 mg/kg HU i.p., start one week post-implantation
# Protocol: U87R1 cells (20,000 cells/mouse) expressing Fluc were implanted in the brain of nude mice. One week later, mice were divided in four groups (n=10-20/group) and treated with 1). DMSO vehicle as control, 2). 50 mg/kg HU, 3). 5 mg/kg TMZ or 4). 5 mg/kg TMZ+50 mg/kg HU. In FIG. 2E, tumor growth was monitored over time by Fluc imaging. […] In FIG. 2F, survival was recorded to generate the Kaplan-Meier plot.
# 200,000 U87R1 cells expressing Fluc were implanted in the brain of nude mice. Two weeks later, mice were divided in two groups (n=10/group) and treated with either TMZ or TMZ+HU. Survival was recorded.
# U87R1 cells expressing Fluc were implanted in the brain of nude mice. One week later, mice were divided in four groups (n=10-20/group) and treated with either DMSO vehicle, radiation (R; 3 Gy), HU, TMZ or R+TMZ+HU. Tumor growth was monitored over time by Fluc imaging and survival was recorded to generate the Kaplan-Meier plot.
# U87 or U87R1 cells were first transduced with a lentivirus vector to stably express firefly luciferase (Fluc), a reporter which can be used to track tumor growth in vivo (Wurdinger, T., et al., Nat Methods 2008, 5, 171-173). Fifty thousands of these cells were intracranially injected in the brain of nude mice as previously described. One week post-tumor implantation, mice were randomized into four different groups receiving: (1) DMSO vehicle control; (2) intraperitoneal (i.p) injection of 5 mg/kg TMZ; (3) 50 mg/kg HU i.p.; (4) combination of TMZ+HU. Tumor growth was monitored over time by in vivo Fluc bioluminescence imaging using a cooled CCD camera (Wurdinger, T., et al., Nat Methods 2008, 5, 171-173). […]
# GBM cells were first transduced with a lentivirus vector to stably express Fluc. […] Tumor growth was monitored over time by in vivo Fluc bioluminescence imaging after i.p. injection of 200 mg/kg D-luciferin substrate and acquiring signal using a cooled CCD camera (Wurdinger, T., et al., Nat Methods 2008, 5, 171-173).
# [10] = system: U87, SNZ308, HS683 parental cells; test: Gluc cell viability assay, parental glioma cell lines; assay type: cell-based; conditions: different amounts of TMZ, four days
# Protocol: as §1
# The inventors previously generated two independent TMZ-resistant subclones from three different glioma cell lines (U87, SNZ308 and HS683) by long-term exposure (two times per week over seven weeks) to 100 μM TMZ, generating U87R1, U87R2, SNZ308R1, SNZ308R2, HS683R1 and HS683R2. These cells together with their parental counterparts were first engineered by lentivirus vector transduction to stably express the naturally secreted Gaussia luciferase (Gluc) as a reporter for cell viability. […] In this case, cell viability can be monitored over time by assaying aliquots of conditioned medium from these cells for Gluc activity. […] Using the U87R1 and U87R2 TMZ-resistant cells and the Gluc high-throughput screening assay (Badr, C. E., et al., Assay Drug Dev Technol, 2011 9, 281-289), a small library of 100 known anti-cancer agents was screened in the presence and absence of 100 μM TMZ. […] The same results were obtained when HU was used in combination with TMZ on SNZ308 and HS683 resistant lines (data not shown).
# [11] = system: GBM8 tumors carrying methylated MGMT promoter; test: Intracranial primary GBM8-Fluc-mCherry tumor model; assay type: in vivo, nude mice
# Protocol: FIG. 4A is an image showing that 10^5 GBM8 cells expressing Fluc and mCherry were stereotactically injected into the left midstriatum of nude mice brain.
# FIG. 4D is a set of images showing the in vivo effects of TMZ+HU treatments on mice. Mice-bearing GBM8-Fluc-mCherry tumors were treated with TMZ or vehicle for two weeks, then left off TMZ for three weeks. TMZ-treated group was then divided into four subgroups which received vehicle, HU, TMZ, or HU+TMZ.
# Primary GBM8 cells24 (from newly diagnosed tumor with methylated MGMT (Wakimoto, H., et al., Neuro Oncol 2012, 14, 132-144)) were grown in stem cell media as neural spheres. […] Upon intracranial injection, these cells formed tumors and infiltrated the brain of nude mice similar to human tumors (FIGS. 4A-4C). This model was used to test the efficacy of HU in combination with TMZ. Four weeks after implantation of 100,000 GBM8 cells, when tumors started to rapidly grow (as observed by Fluc imaging), mice were divided into two groups (n=20/group) which received DMSO vehicle or i.p. injection of 30 mg/kg TMZ four days/week over two weeks. […] Mice were then left off TMZ to allow for GBM tumors to recur potentially becoming resistant to TMZ, recapitulating the patient scenario. At this point, the TMZ group was divided into four subgroups (n=10/group) which received either DMSO, HU (50 mg/kg), TMZ (30 mg/kg) or HU+TMZ four days/week over three weeks. […] Next, the toxicity of this combined therapy was assessed by treating mice with either DMSO, TMZ, HU, or HU+TMZ for four consecutive days and analyzing the blood for white blood cells (WBC), hematocrit (HCT), mean corpuscular volume (MCV), red cell distribution width (RDW), hemoglobin (HGB), mean corpuscular hemoglobin (MCH), red blood cells (RBC), platelets (PLT), and mean platelet volume (MPV). No significant difference between different treated groups in comparison to DMSO control was found (Table 1). Hematotoxicity on bone marrow was also evaluated by preparing bone marrow smears and counting viable cells from untreated and TMZ/HU-treated naïve mice as above.
# [12] = system: GBM; conditions: cited from earlier work
# [13] = second round, HU 50 mg/kg, TMZ 30 mg/kg, four days/week over three weeks
smiles,measurement,setting,value
"Nc1ccn([C@@H]2O[C@H](CO)[C@@H](O)C2(F)F)c(=O)n1 [gemcitabine, 4-amino-1-(2-deoxy-2,2-difluoro-β-D-erythro-pentofuranosyl)pyrimidin-2(1H)-on]",sensitization of GBM cells to TMZ,[1]; RNR inhibitor in presence or absence of 100 μM TMZ,sensitized GBM cells to TMZ
"NC(=O)NO [HU, hydroxyurea]",sensitization of resistant cells to TMZ,"[2]; U87R1 and U87R2, 100 μM HU, TMZ",sensitize both resistance cell lines to TMZ
same,MPV,[3],6.3 ± 0.4
same,decrease in Fluc activity,"[4]; 30 μM HU, 3 days",50%
same,sensitization of melanoma cells to TMZ,[5],sensitizes melanoma cells to TMZ
same,effect on blood brain tumor permeability,[6],increases the blood brain tumor permeability of certain chemotherapeutics
same,efficacy in malignant gliomas,[7],limited efficacy
same,mice survival,[8],no significant effect
same,tumor growth (Fluc bioluminescence imaging),[8],no significant effect
same,mice survival,[9],no significant effect
same,tumor growth (Fluc bioluminescence imaging),[9],no significant effect
"Cn1nnc2c(C(N)=O)ncn2c1=O [TMZ, 4-methyl-5-oxo-2,3,4,6,8-pentazabicyclo[4.3.0]nona-2,7,9-triene-9-carboxamide]",cell viability (Gluc activity) on exposure to TMZ,[10],sensitive to TMZ in a dose-dependent fashion
same,cell viability (Gluc activity) on exposure to TMZ,"[2]; resistant cell lines, up to 100 μM TMZ",no significant effect
same,"tumor response, first round of treatment","[11]; 30 mg/kg TMZ i.p. four days/week over two weeks, start four weeks after implantation",responded very well
same,"survival rate, recurred tumors after TMZ break",[11]; [13],not a significant increase
same,"tumor volume / tumor growth, recurred tumors after TMZ break",[11]; [13],moderate effect
same,MPV,[3],6.5 ± 0.4
same,"cell viability (Gluc assay), TMZ alone",[1]; 100 μM TMZ,moderate-to-no effect
same,median survival,"[12]; TMZ added to standard of care including surgery and radiation, 12.1 months without",14.6 months
same,patients who die after 5 years,[12]; patients receiving both TMZ and radiation,90%
same,overall 2 years survival,"[12]; randomized phase III, combined therapy, 10.9% without",27.2%
same,mice survival,[8],moderate effect
same,tumor growth (Fluc bioluminescence imaging),[8],moderate effect
same,tumor growth (Fluc bioluminescence imaging),[9],not on U87R1 tumors
C[C@H](NC(=O)Cc1cc(F)cc(F)c1)C(=O)N[C@H](C(=O)OC(C)(C)C)c1ccccc1 [DAPT],change of Fluc activity,[4]; γ-secretase inhibition,decrease of Fluc activity similar to HU
